The source of these data is US10154974B1, “Use of abscisic acid for the prevention and treatment of malaria” (The Regents of the University of California, priority 2015, dated 2018).

Structures are written as SMILES.

The nature of data set [1]: ABA extraction from mouse plasma and quantification by ELISA. The class given is in vivo, mice. The method, then:
Mice were euthanized on day 7 post-infection. Blood was collected by heart puncture, spun at 8,000 rpm for 8 minutes and the plasma collected for ABA quantification. Livers and spleens were collected, retained in 10% formalin for 24 hours and then stored in 70% ethanol before sectioning and staining with hematoxylin and eosin. Liver sections were blindly scored on a scale from 0 to 3 for pigment levels, Kupffer cell density, portal tract inflammation, hemozoin deposition, extramedullary hematopoiesis, sinusoidal leukocyte density, sinusoidal adherence of leukocytes, and presence of microabscesses. Spleen sections were blindly scored on a scale from 0 to 3 for hyperplasia, extramedullary hematopoiesis, pigment, and levels of histiocytes and neutrophils. Pathology scores of control and treated mice were analyzed by unpaired t-test.
ABA was extracted from mouse plasma as described (Engelberth, J Vis Exp, 2009, 28:1127). Briefly, 50 μL of plasma was added to 200 μL extraction buffer (1-propanol:H2O:concentrated HCL at a 2:1:0.002 volume ratio) and vortexed. […] Dried samples were re-eluted in 100% methanol and ABA levels determined using the Phytodetek Abscisic Acid ELISA kit (Agdia) according to the manufacturer's instructions. ABA levels in the plasma of control and ABA-supplemented mice, 4-5 per group, were analyzed by Mann Whitney test.
In general terms: ELISA stands for enzyme-linked immunosorbent assay.

The subject of a further data set is P. falciparum. The data set can be described thus: P. falciparum infection of A. stephensi fed a supplemented infected bloodmeal. The class given is in vivo. The conditions noted are these: for reduction of infection prevalence in A. stephensi: relative to control. The method, then:
For P. falciparum infections A. stephensi were fed on a 1:1 ratio of P. falciparum-infected RBCs containing a treatment or diluent control and provided in a Hemotek Insect Feeding System (Discovery Workshops). ABA was eluted in 100% ethanol and stored at −20 C for up to 6 months. ABA stock was diluted with PBS and added into blood immediately before feeding for final concentrations of 10 nM and 100 nM. For L-NAME feeds mosquitoes were maintained on sugar cubes and water pads containing 1 mg/mL L-NAME for 72 hours before the feed and throughout the course of infection. Infection prevalence data were analyzed by Fisher's Exact Test. Oocyst intensities were analyzed by Mann-Whitney test.

For another data set, the system named is AMPK. As to the kind of experiment: AMPK phosphorylation in mosquito midgut. The class given is in vivo, Anopheles stephensi. The conditions noted are these: midguts of ABA-treated, P. falciparum-fed mosquitoes. The procedure:
Fold change is shown in levels of phosphorylated AMPK (FIG. 13A), and gsk3 (FIG. 13B) in the midguts of ABA-treated, P. falciparum-fed mosquitoes compared to controls. Each dot represents one replicate of 15 pooled midguts. Data were analyzed by one sample t-test. * p<0.05.

A further data set relates to P. yoelii 17XNL. The data set can be described thus: P. yoelii 17XNL parasitemia in C57Bl/6 and casp1-/- mice. The class given is in vivo. The procedure:
Daily parasitemia of three separate cohorts of mice with and without ABA supplementation. 3 to 5 mice were used per treatment in each infection. Data were analyzed by one-sided, unpaired t-test. # p<0.1, * p<0.05, ** p<0.005.
FIG. 28A-B illustrate that ABA has no effect on parasitemia in caspase-1 knockout mice. […] 4-5 mice were used per treatment group. Data were analyzed by unpaired t-test. # p<0.1 * p<0.05.

Data set [2] is described as follows: Whole liver and spleen weights. It is filed as in vivo, mice. The note with it: day 9 post-infection with P. yoelii 17XNL. The procedure:
FIG. 20A-C illustrate that ABA supplemented mice have reduced hepatosplenomegaly and evidence of improved liver function. Shown are weights of whole liver (FIG. 20A) and spleen (FIG. 20B) from control and ABA-supplemented mice on day 9 post-infection with P. yoelii 17XNL. Also shown are blood urea nitrogen levels (FIG. 20C) in plasma of uninfected and P. yoelii-infected, control and ABA-supplemented mice on day 11 post-infection. Data were analyzed by unpaired t-test.

The next data set has as its system human macrophages. The note with it: in vitro; cited from earlier work.

Consider `CC1=CC(=O)CC(C)(C)[C@@]1(O)/C=C/C(C)=C\C(=O)O` (racemic) [ABA, (2Z,4E)-5-[(1S)-1-hydroxy-2,6,6-trimethyl-4-oxocyclohex-2-en-1-yl]-3-methylpenta-2,4-dienoic acid], for which the “increase of ABA levels in plasma” value in data set [1] (P. yoelii infection, vs non-supplemented infected mice) is on record as “over 6 fold”. Also, in data set [1] (oral supplementation, absence of infection), the “ABA levels in plasma” value is recorded as “did not alter”. The “reduction of infection prevalence in A. stephensi” value was found to be 30% with P. falciparum (10 nM ABA in bloodmeal) and 36% in the data set on P. falciparum (100 nM ABA in bloodmeal). For the same molecule, the “mean oocysts per midgut” value in the data set on P. falciparum (10 nM ABA, among infected mosquitoes (controls 2.1)) is given as 1.6. In addition, the “phosphorylation of AMPK” value with AMPK is “alters phosphorylation”. Further, the parasitemia entry in the data set on P. yoelii 17XNL (C57Bl/6 mice, three cohorts) was “significantly reduces”; in the data set with P. yoelii 17XNL (caspase-1 knockout mice) it was “no effect”. The “hepatosplenomegaly (weights of whole liver and spleen)” value in data set [2] is given as “reduced”. Besides, the “activation of human macrophages” value in the data set with human macrophages is on record as “activate”.
